Among the data in US12077537B2 (Gilead Sciences, Inc., priority 2020, dated 2024) are EC50 values, retold here.

pEC50: −log10 of the molar value.

The subject of the assay is HIV-IIIb. The assay can be described thus: Antiviral assay in MT4 cells. It counts as cell-based. The note with it: Human immunodeficiency virus 1, MT4, 120 h; MT-4 cells mixed with HIV-IIIb at m.o.i. 0.003; 5 days at 37° C.; CellTiter-Glo luminescence; 50% decrease in signal, a measure of HIV-1 replication. The method in brief:
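Compound, tested at ten 3-fold dilutions in quadruplicate in 10% FBS medium, received MT-4 cells pre-mixed 1 hour with HIV-IIIb (m.o.i. 0.003). Protection was read as luminescent cell viability (CellTiter-Glo) after 5 days' culture at 37° C.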
(In general: In ATP-based viability assays light output follows the ATP content of the culture.)

A word on the pEC50: it is the negative decadic logarithm of the EC50, by convention in mol/L. A higher pEC50 goes with a small EC50. With `Cn1nc(NS(C)(=O)=O)c2cccc(-c3cc4sc(N5CCNC(=O)C5)nc4nc3[C@H](Cc3cc(F)cc(F)c3)NC(=O)Cn3nc(C(F)(F)F)c4c3C(F)(F)[C@@H]3C[C@H]43)c21` [Example 72, 2-((3bS,4aR)-5,5-difluoro-3-(trifluoromethyl)-3b,4,4a,5-tetrahydro-1H-cyclopropa[3,4]cyclopenta[1,2-c]pyrazol-1-yl)-N—((S)-2-(3,5-difluorophenyl)-1-(6-(1-methyl-3-(methylsulfonamido)-1H-indazol-7-yl)-2-(3-oxopiperazin-1-yl)thiazolo[4,5-b]pyridin-5-yl)ethyl)acetamide], the negative-log EC50 (pEC50) was 7.49.

`Cn1nc(NS(C)(=O)=O)c2cccc(-c3cc4sc(N5CC(C(N)=O)C5)nc4nc3[C@H](Cc3cc(F)cc(F)c3)NC(=O)Cn3nc(C(F)(F)F)c4c3C(F)(F)[C@@H]3C[C@H]43)c21` [Example 73, 1-(5-((S)-1-(2-((3bS,4aR)-5,5-difluoro-3-(trifluoromethyl)-3b,4,4a,5-tetrahydro-1H-cyclopropa[3,4]cyclopenta[1,2-c]pyrazol-1-yl)acetamido)-2-(3,5-difluorophenyl)ethyl)-6-(1-methyl-3-(methylsulfonamido)-1H-indazol-7-yl)thiazolo[4,5-b]pyridin-2-yl)azetidine-3-carboxamide] gave a pEC50 of 7.17.

Compound `Cn1nc(NS(C)(=O)=O)c2cccc(-c3cc4sc(N5CCC5C(N)=O)nc4nc3[C@H](Cc3cc(F)cc(F)c3)NC(=O)Cn3nc(C(F)(F)F)c4c3C(F)(F)[C@@H]3C[C@H]43)c21` (stereo partly drawn) [Example 74, 1-(5-((S)-1-(2-((3bS,4aR)-5,5-difluoro-3-(trifluoromethyl)-3b,4,4a,5-tetrahydro-1H-cyclopropa[3,4]cyclopenta[1,2-c]pyrazol-1-yl)acetamido)-2-(3,5-difluorophenyl)ethyl)-6-(1-methyl-3-(methylsulfonamido)-1H-indazol-7-yl)thiazolo[4,5-b]pyridin-2-yl)azetidine-2-carboxamide] had a negative-log EC50 (pEC50) of 7.24.

As for `Cn1nc(NS(C)(=O)=O)c2cccc(-c3cc4sc(NCCN5CCOCC5)nc4nc3[C@H](Cc3cc(F)cc(F)c3)NC(=O)Cn3nc(C(F)(F)F)c4c3C(F)(F)[C@@H]3C[C@H]43)c21` [Example 75, 2-((3bS,4aR)-5,5-difluoro-3-(trifluoromethyl)-3b,4,4a,5-tetrahydro-1H-cyclopropa[3,4]cyclopenta[1,2-c]pyrazol-1-yl)-N—((S)-2-(3,5-difluorophenyl)-1-(6-(1-methyl-3-(methylsulfonamido)-1H-indazol-7-yl)-2-((2-morpholinoethyl)amino)thiazolo[4,5-b]pyridin-5-yl)ethyl)acetamide], the negative logarithm of the EC50 (pEC50) is 8.03.

`Cn1nc(NS(C)(=O)=O)c2cccc(-c3cc4sc(N5CCN(C6COC6)CC5)nc4nc3[C@H](Cc3cc(F)cc(F)c3)NC(=O)Cn3nc(C(F)(F)F)c4c3C(F)(F)[C@@H]3C[C@H]43)c21` [Example 76, 2-((3bS,4aR)-5,5-difluoro-3-(trifluoromethyl)-3b,4,4a,5-tetrahydro-1H-cyclopropa[3,4]cyclopenta[1,2-c]pyrazol-1-yl)-N—((S)-2-(3,5-difluorophenyl)-1-(6-(1-methyl-3-(methylsulfonamido)-1H-indazol-7-yl)-2-(4-(oxetan-3-yl)piperazin-1-yl)thiazolo[4,5-b]pyridin-5-yl)ethyl)acetamide] had a negative logarithm of the EC50 (pEC50) of 8.35. Compared with the last compound, the pEC50 is 0.32 log units higher.

For `Cn1nc(NS(C)(=O)=O)c2cccc(-c3cc4sc(N5CC6(COC6)C5)nc4nc3[C@H](Cc3cc(F)cc(F)c3)NC(=O)Cn3nc(C(F)(F)F)c4c3C(F)(F)[C@@H]3C[C@H]43)c21` [Example 77, 2-((3bS,4aR)-5,5-difluoro-3-(trifluoromethyl)-3b,4,4a,5-tetrahydro-1H-cyclopropa[3,4]cyclopenta[1,2-c]pyrazol-1-yl)-N—((S)-2-(3,5-difluorophenyl)-1-(6-(1-methyl-3-(methylsulfonamido)-1H-indazol-7-yl)-2-(2-oxa-6-azaspiro[3.3]heptan-6-yl)thiazolo[4,5-b]pyridin-5-yl)ethyl)acetamide], the pEC50 is 7.80. Against the preceding compound, the pEC50 is 0.55 log units lower.

With `CC1CC1Nc1nc2nc([C@H](Cc3cc(F)cc(F)c3)NC(=O)Cn3nc(C(F)(F)F)c4c3C(F)(F)[C@@H]3C[C@H]43)c(-c3cccc4c(NS(C)(=O)=O)nn(C)c34)cc2s1` (stereo partly drawn) [Example 78, 2-((3bS,4aR)-5,5-difluoro-3-(trifluoromethyl)-3b,4,4a,5-tetrahydro-1H-cyclopropa[3,4]cyclopenta[1,2-c]pyrazol-1-yl)-N-((1S)-2-(3,5-difluorophenyl)-1-(6-(1-methyl-3-(methylsulfonamido)-1H-indazol-7-yl)-2-((2-methylcyclopropyl)amino)thiazolo[4,5-b]pyridin-5-yl)ethyl)acetamide], the pEC50 was 7.37.

On to `CNc1nc2nc([C@H](Cc3cc(F)cc(F)c3)NC(=O)Cn3nc(C(F)(F)F)c4c3C(F)(F)[C@@H]3C[C@H]43)c(-c3cccc4c(NS(C)(=O)=O)nn(C)c34)cc2s1` [Example 79, 2-((3bS,4aR)-5,5-difluoro-3-(trifluoromethyl)-3b,4,4a,5-tetrahydro-1H-cyclopropa[3,4]cyclopenta[1,2-c]pyrazol-1-yl)-N—((S)-2-(3,5-difluorophenyl)-1-(6-(1-methyl-3-(methylsulfonamido)-1H-indazol-7-yl)-2-(methylamino)thiazolo[4,5-b]pyridin-5-yl)ethyl)acetamide], for which the pEC50 was 7.83.

In turn, `Cn1nc(NS(C)(=O)=O)c2cccc(-c3cc4sc(N5CCC6(CC5)CNC(=O)O6)nc4nc3[C@H](Cc3cc(F)cc(F)c3)NC(=O)Cn3nc(C(F)(F)F)c4c3C(F)(F)[C@@H]3C[C@H]43)c21` [Example 80, 2-((3bS,4aR)-5,5-difluoro-3-(trifluoromethyl)-3b,4,4a,5-tetrahydro-1H-cyclopropa[3,4]cyclopenta[1,2-c]pyrazol-1-yl)-N—((S)-2-(3,5-difluorophenyl)-1-(6-(1-methyl-3-(methylsulfonamido)-1H-indazol-7-yl)-2-(2-oxo-1-oxa-3,8-diazaspiro[4.5]decan-8-yl)thiazolo[4,5-b]pyridin-5-yl)ethyl)acetamide] had a negative-log EC50 (pEC50) of 7.61. This pEC50 lies 0.22 log units lower than the previous one.

`Cn1nc(NS(C)(=O)=O)c2cccc(-c3cc4sc(NC5(C)CC5)nc4nc3[C@H](Cc3cc(F)cc(F)c3)NC(=O)Cn3nc(C(F)(F)F)c4c3C(F)(F)[C@@H]3C[C@H]43)c21` [Example 81, 2-((3bS,4aR)-5,5-difluoro-3-(trifluoromethyl)-3b,4,4a,5-tetrahydro-1H-cyclopropa[3,4]cyclopenta[1,2-c]pyrazol-1-yl)-N—((S)-2-(3,5-difluorophenyl)-1-(6-(1-methyl-3-(methylsulfonamido)-1H-indazol-7-yl)-2-((1-methylcyclopropyl)amino)thiazolo[4,5-b]pyridin-5-yl)ethyl)acetamide] gave a pEC50 of 7.73.

For the compound `Cn1nc(NS(C)(=O)=O)c2cccc(-c3cc4sc(N5CCOCC5)nc4nc3[C@H](Cc3cc(F)cc(F)c3)NC(=O)Cn3nc(C(F)(F)F)c4c3C(F)(F)[C@@H]3C[C@H]43)c21` [Example 82, 2-((3bS,4aR)-5,5-difluoro-3-(trifluoromethyl)-3b,4,4a,5-tetrahydro-1H-cyclopropa[3,4]cyclopenta[1,2-c]pyrazol-1-yl)-N—((S)-2-(3,5-difluorophenyl)-1-(6-(1-methyl-3-(methylsulfonamido)-1H-indazol-7-yl)-2-morpholinothiazolo[4,5-b]pyridin-5-yl)ethyl)acetamide], the pEC50 is 8.18.
